Assay results taken from patent US11572362B2, “Pyrrolo[1,2-b]pyridazine derivatives” (Gilead Sciences, Inc., priority 2018, dated 2023).

Experiments:
TNFα = test: IRAK4 Monocyte TNFα Cell Based Assay; details: Monocyte; cryopreserved human monocytes, 50 pg/ml LPS, compound 1 hour pre-treatment, 4 hours stimulation, TNFα by TR-FRET
Outline: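 Monocytes at 5,000 cells/well were pre-treated with compound for 1 h at 37 °C (0.1% DMSO final), then stimulated with 50 pg/ml LPS for 4 h. Secreted TNFα in supernatant was measured by TR-FRET (665/615 ratio), expressed as % control relative to unstimulated and stimulated cells.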

IRAK4 = IRAK4 (Homo sapiens (Human), UniProt Q9NWZ3); test: IRAK4 Biochemical Assay (TR-FRET/HTRF); details: IRAK4 enzyme 0.75 nM, 500 μM ATP, 2 μM STK1 peptide, 120 min
Outline: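 Recombinant IRAK4 (0.75 nM) with 2 µM STK1 peptide and 500 µM ATP in pH 7.0 HEPES/Mg buffer; compound preincubated 15 min with enzyme and peptide, then 120 min reaction at room temperature. HTRF readout: cryptate anti-phospho-peptide antibody, 665/615 nm ratio; % inhibition against no-inhibitor and saturating-staurosporine controls.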

Chain of IRAK4 (Q9NWZ3 whole entry): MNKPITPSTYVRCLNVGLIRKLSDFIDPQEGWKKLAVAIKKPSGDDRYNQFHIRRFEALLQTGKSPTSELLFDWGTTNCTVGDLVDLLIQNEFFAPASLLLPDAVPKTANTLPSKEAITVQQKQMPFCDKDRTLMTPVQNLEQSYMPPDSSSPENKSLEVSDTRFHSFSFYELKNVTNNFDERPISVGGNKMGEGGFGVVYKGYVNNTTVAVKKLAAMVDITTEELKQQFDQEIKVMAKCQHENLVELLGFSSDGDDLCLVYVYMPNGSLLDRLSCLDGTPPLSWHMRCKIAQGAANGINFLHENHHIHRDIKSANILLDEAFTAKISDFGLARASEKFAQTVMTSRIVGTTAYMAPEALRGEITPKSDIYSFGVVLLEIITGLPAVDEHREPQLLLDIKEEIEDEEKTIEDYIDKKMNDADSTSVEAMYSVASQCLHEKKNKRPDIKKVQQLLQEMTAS

Structure (SMILES): CC(C)(O)[C@H](F)CNC(=O)c1cnc(-c2ccc3cc(C#N)cnn23)cc1NC12CCC(c3nnc(C(F)F)o3)(CC1)OC2 [Compound 65, (R)-6-(3-cyanopyrrolo[1,2-b]pyridazin-7-yl)-4-((1-(5-(difluoromethyl)-1,3,4-oxadiazol-2-yl)-2-oxabicyclo[2.2.2]octan-4-yl)amino)-N-(2-fluoro-3-hydroxy-3-methylbutyl)nicotinamide]
- EC50 (TNFα): 23 nM
- IC50 (IRAK4): 1 nM

Structure (SMILES): CC(C)(O)[C@H](F)CNC(=O)c1cnc(-c2ccc3cc(C#N)cnn23)cc1N[C@H]1CC[C@H](C2CCOCC2)CC1 [Compound 67, 6-(3-cyanopyrrolo[1,2-b]pyridazin-7-yl)-N-((R)-2-fluoro-3-hydroxy-3-methylbutyl)-4-(((1r,4R)-4-(tetrahydro-2H-pyran-4-yl)cyclohexyl)amino)nicotinamide]
- EC50 (TNFα): 41 nM
- IC50 (IRAK4): 1 nM
